Assay results from publication PMC9138545, “Incorporation of Oxidized Phenylalanine Derivatives into Insulin Signaling Relevant Proteins May Link Oxidative Stress to Signaling Conditions Underlying Chronic Insulin Resistance” (Biomedicines, 2022).
“Also recorded” adds a separate entry of the source.

Key:
IRS-1 (Tyr612) = assay: Western blot, activating phosphorylation of IRS-1 (Tyr612); type: cell-based; conditions: n = 4–8; for insulin-induced IRS-1 phosphorylation: 400 nmol/L insulin, adipocytes, HEK cells, podocytes, macrophages; for basal IRS-1 phosphorylation: without insulin, cells grown on o- or m-Tyr medium
Protocol: Early passages of mouse embryo fibroblast (3T3-L1) (ATCC, Manassas, VA, US) were cultured in Dulbecco’s modified Eagle medium (DMEM, Sigma Aldrich, Budapest, Hungary, CAT number: D6046; Invitrogen, Waltham, MA, USA, CAT number: 41966-029) supplemented with 100 U/mL penicillin, 0.1 mg/mL streptomycin (Gibco, Budapest, Hungary, CAT number: 15070-063) and 10% heat-inactivated Fetal Bovine Serum (FBS, Gibco, CAT number: 16170-078), supplemented with 398 nM p-, m-, or o-Tyr (equimolar to the original p-Tyr content of the medium) purchased from Sigma (CAT number: para-Tyr: T8566, m-Tyr: T3629, o-Tyr: 93851). Media contained 25 or 5 mmol/L glucose (experiment dependent) pyruvate and L-glutamine. Cells were grown at 37 °C and 5% CO2. Adipocyte differentiation was achieved by DMEM supplemented with 10% FBS (Gibco, Csertex, Budapest, Hungary, CAT number: 10106-169) (FBS) and a […] insulin (Sigma Aldrich, Budapest, Hungary, CAT number: I 9278), […] isobuthylmethylxanthine (Sigma Aldrich, Budapest, Hungary, CAT number: I 5879), and 250 nmol/L dexamethasone (Sigma Aldrich, Budapest, Hungary, CAT number: 861871) containing cocktail. From day 4 onward, cultures were maintained in DMEM containing 1.5 μg/mL insulin and 10% FBS with a medium change every other day until experimental treatments were started. After 90% of the cell population reached the adipocyte phenotype, prior to all treatments, cells were incubated overnight in serum-deprived medium. Experimental treatment was performed in serum-deprived medium containing 200 or 400 nmol/L insulin, for 5 min.
(§1) The conditionally immortalized human podocyte cell line (provided by Moin Saleem, University of Bristol, UK) was cultured in RPMI1640 medium (R8756, Sigma Aldrich, Budapest, Hungary) supplemented with 10% heat-inactivated FBS (16170-078, Gibco, Budapest, Hungary), insulin-transferrin-selenium supplement (41400-045, Gibco), 100 U/mL penicillin, 0.1 mg/mL streptomycin (P4333, Sigma), and […] (equimolar to the original p-Tyr content of the medium) para-, meta-, or ortho-Tyr. The cells were grown at 33 °C 5% CO2, and when they reached 40–60% confluency they were transferred to 37 °C to differentiate. Following the thermoswitching, cells were kept on RPMI1640 medium containing 2% FBS, antibiotics, and different tyrosines. Before every treatment, cells were incubated in serum-deprived medium overnight.
HEK-293 immortalized cell line (ATCC, Manassas, VA, USA) of epithelial morphology and the J774A.1 mouse BALB/C monocyte-macrophage cell lines (91051511-1VL, Sigma Aldrich, Budapest, Hungary) were cultured in Petri dishes with a medium composed of Dulbecco’s modified Eagle’s medium (DMEM, Sigma Aldrich, Budapest, Hungary, CAT number: D6046, Invitrogen, CAT number: 41966-029), with a 10% heat-inactivated FBS supplementation (16170-078, Gibco), insulin-transferrin-selenium supplement (41400-045, Gibco, Budapest, Hungary,), 100 U/mL penicillin and 0.1 mg/mL streptomycin (P4333, Sigma) and 398 nM para (5 and 25 mmol/L), meta-, or ortho-Tyr (T8566, T3629, 93851, Sigma). Before treatment, cells were incubated in serum-deprived medium overnight as well. […]
The samples of lysates were vortexed and centrifuged (10 min, 13,000 rpm, at 4 °C). Protein content of the samples was determined by the Lowry method using bovine serum albumin as a standard. […]

p-IRS-1 in podocytes = assay: Immunofluorescence of p-IRS-1 in insulin-treated podocytes; type: cell-based, human; conditions: 400 nmol/l insulin for 10 min; for p-IRS-1 intensity: vs. p-Tyr
Protocol: as §1
In a 6-well plate, 104 cells were cultured on glass coverslips washed with alcohol and dried under UV light. The podocyte cells were grown in RPMI1640 medium supplemented with 10% heat-inactivated FBS at 33 °C, 5% CO2. When they reached 60% confluence, the medium was changed to RPMI1640 medium containing 2% FBS and 112.05 nM of the different tyrosine isoforms, then the plates were transferred to 37 °C, 5% CO2 to allow the cells to differentiate. The different tyrosine isoforms were added to the maintenance medium. The cells were serum deprived overnight, then incubated with 400 nmol/l insulin for 10 min. After removal of the medium, the coverslips were washed twice with PBS. The cells were fixed at room temperature in 2% paraformaldehyde and 4% sucrose for 8 min, then permeabilized using 0.3% Trion X-100 in 1xPBS for 20 min and blocked in 2.5% BSA for 45 min [45]. The primary antibody was diluted in 1xPBS, and the cells were incubated in it for 60 min in humid conditions. The antibodies we used were mouse anti-WT1 antibody (H-1) (1:100, Santa Cruz Biotechnology, Dallas, TX, USA), chicken anti-vimentin antibody (1:100, Abcam), rabbit anti-glucose transporter GLUT4 antibody (1:100, Abcam, Cambridge, UK), mouse Insulin Receptor Substrate-1 antibody (1:100, Invitrogen, Waltham, MA, USA), and rabbit anti-phospho-Insulin Receptor Substrate-1 (pTyr612) antibody (1:10, Sigma). Coverslips were washed in PBS three times for 5 min in PBS and incubated in the fluorophore-conjugated secondary antibodies anti-goat, anti-chicken, secondary antibody Alexa fluor 647, anti-rabbit Alexa fluor 350, and anti-mouse Alexa Fluor 488 (1:10, Invitrogen) for 60 min. Samples were then washed in PBS three times for 5 min and mounted in Vectashield (Vector Laboratories). Images were taken with a Nikon Eclipse Ti2 microscope.

SMILES: NC(Cc1ccccc1O)C(=O)O (stereo not drawn) [o-Tyr, ortho-tyrosine]
- insulin-induced IRS-1 phosphorylation (IRS-1 (Tyr612)): could not be further raised by insulin treatment
- basal IRS-1 phosphorylation (IRS-1 (Tyr612)): either unchanged or higher
- membrane translocation of IRS-1 / p-IRS-1 (p-IRS-1 in podocytes): not characteristic
- membrane translocation of IRS-1 / p-IRS-1 (p-IRS-1 in podocytes; listed as o-Ty): absent
- p-IRS-1 intensity (p-IRS-1 in podocytes): lower; also recorded: the signal almost disappears

SMILES: N[C@@H](Cc1cccc(O)c1)C(=O)O [m-Tyr, meta-tyrosine]
- insulin-induced IRS-1 phosphorylation (IRS-1 (Tyr612)): could not be further raised by insulin treatment
- basal IRS-1 phosphorylation (IRS-1 (Tyr612)): either unchanged or higher
- membrane translocation of IRS-1 / p-IRS-1 (p-IRS-1 in podocytes): absent; also recorded: not characteristic
- p-IRS-1 intensity (p-IRS-1 in podocytes): lower
